IC50 data for three compounds are collected here from patent publication US6767916B2 (Indena S.p.A., priority 1999, dated 2004).

Data set [1] is described as follows: cytotoxicity of compounds tested alone against drug-resistant cancer cells. It counts as cell-based. The conditions noted are these: human, MDA-435/LCC-MDR drug-resistant cancer cells, read-out: cytotoxicity IC50, compound alone. The protocol:
Compounds VIB 106 and VIB 122 were tested for their cytotoxicity against drug-resistant cancer cells, both alone, and in combination with paclitaxel.
The treatment consisted of concurrent exposure of MDA-435/LCC-MDR cells to paclitaxel in the presence or absence of the compounds reversing agent (1 μM) for 72 h in vitro. Assessment of cytotoxicity, i.e. cell growth inhibition, was determined according to the methods of Skehan, et al. as discussed in J. Nat. Cancer Inst., 82, 1107,1990. Briefly, cells were plated between 400 and 1200 cells/well in 96 well plates and incubated at 37° C. for 15-18 h prior to drug addiction to allow attachment of cells. Compounds were solubilized in 100% DMSO and further diluted in RPMI-1640 containing 10 mM HEPES. After a 72 h incubation, 100 μl of ice-cold 50% TCA was added to each well and incubated for 1 h at 4° C. Plates were then washed 5 times with tap water to remove TCA, low-molecular weight metabolites and serum proteins. Sulforhodamine B (SRB) (0.4%, 50 μl) was added to each well. Following a five minute incubation at room temperature, plates were rinsed 5 times with 0.1% acetic acid and air dried. Bound dye was solubilized with 10 mM Tris Base (pH 10.5) for 5 min on a gyratory shaker. Optical density was measured at 570 nm. [drawing 4] [drawing 5] [drawing 6] [drawing 7]

Data set [2] concerns drug-resistant breast cancer cells MDA435/LCC6-MDR. Nature of the data set: cytostatic activity in combination with paclitaxel (SRB cell growth inhibition). The conditions noted are these: IC50 of paclitaxel in presence or absence of compound (reversing agent 1 μM), 72 h. The data set is classed as cell-based. The protocol:
Following a five minute incubation at room temperature, plates were rinsed 5 times with 0.1% acetic acid and air dried. Bound dye was solubilized with 10 mM Tris Base (pH 10.5) for 5 min on a gyratory shaker.

A value given as a limit tells only on which side of the number the result lay.

For the compound `CC(C)=CCOc1ccc2c(C)cc(=O)oc2c1C(=O)C=Cc1cccnc1`, in data set [1], the IC50 (as a rule, the concentration that gives 50% inhibition) at 72 h was above 1000 nM.
Regarding `CC(=O)O[C@H]1C(=O)[C@@]2(C)[C@H]([C@H](OC(=O)c3ccccc3)[C@]3(O)C[C@H](OC(=O)[C@H](O)[C@@H](NC(=O)c4ccccc4)c4ccccc4)C(C)=C1C3(C)C)[C@]1(OC(C)=O)CO[C@@H]1C[C@@H]2O` [Paclitaxel], the IC50 in data set [2] is 426 nM.
For `C=C(C)COc1ccc2c(C)cc(=O)oc2c1C(=O)C=Cc1cccnc1` [VIB 122, 1-[4-Methyl-7-(2-methylallyloxy)coumarin8-yl]-3-(pyridine-3-yl)propen-1-one], in data set [1], the IC50 at 72 h was above 1000 nM.
